This passage reports basophil histamine release results from patent publication US20040219105A1, “Human hookworm model and method for maintaining human hookworm in a non-human primate” (priority 2003, published 2004).

The experiment concerns whole blood basophils. Kind of experiment: Whole blood basophil histamine release (Histamine Assay Kit). The note with it: whole blood of hookworm-infected animals; 5 out of 6 animals. It counts as cell-based, marmoset (Callithrix jacchus). The method, then: Furthermore, whole blood basophils collected from the animals were challenged for their ability to release histamine. One hundred (100) μl of whole blood was collected from the primates into heparinized tubes and the volume was made up to 500 μl using PIPES buffer (0.01 M Piperazine-N′N-bis[2-ethaneculfonic acid], 0.14 M sodium acetate, 5 mM potassium acetate, 0.1% glucose, 1 mM CaCl2 and 0.03% human serum albumin, pH 7.4). Spontaneous histamine release was assessed following incubation for 1 h at 37° C., while total histamine release was assessed when 50 μl of whole blood in 450 μl dH2O was freeze-thawed three times. […] Histamine released in each whole blood challenge was detected using a Histamine Assay Kit (Hycor Biomedical Ltd.). […] Antibody binding was visualised by the addition of 100 μl of 1 mg/ml of p-nitrophenyl phosphate (pNPP) substrate The plates were developed for 1 h at 37° C. and the absorbance measured at 405 nm using a Dynex MRX absorbance microplate reader (DYNEX Technologies, Chantilly, Va.). For all samples and calibrators the percentage binding was determined by the following: [formula]
A standard curve was constructed by plotting the Percentage Binding against concentration for each histamine calibrator, and the levels of histamine in each challenge were determined from this curve.

For calreticulin, the basophil histamine release entry is given as “significant histamine release”.
